This passage reports CC50 and Ki results from patent publication US20250011319A1, “SUBSTITUTED 1H-PYRAZOLO [4,3-c] QUINOLINES, METHODS OF PREPARATION, AND USE THEREOF” (Lomond Therapeutics, Inc., priority 2021, published 2025).

Read-outs that look alike come from different tables or passages of the source.

One series concerns MV4-11 cell lines. The series can be described thus: MV4-11 Cytotoxicity Assay (CellTiter-Glo). The series is classed as cell-based. Conditions: Homo sapiens, read-out: MV4-11, CC50. The method, then: Example B. MV4-11 Cytotoxicity Assay. CC50 was determined using MV4-11 cell lines in RPMI-1640 culture medium (PanEco cat #C363). Compounds were prepared as 200× stocks with serial dilution in 100% DMSO with a final concentration of 1×. Dispersed 40 μL in 384-well plates at a concentration of 4000 cells per well using a robotic station Biomek (Beckman). Before adding compounds, the cells were incubated at 37° C. A dilution plate was prepared by pouring 78 μl of the appropriate culture medium using a robotic station Biomek (Beckman). Sequentially, using a robotic station, 2 μl of substances were taken and added to 78 μl of culture medium (dilution of compounds 40×). Took from there 10 μl and added to the plates to the cells (dilution of compounds 5×). The plates were incubated for 3 days at a temperature 37° C. After 3 days, 10 μl of CellTiter-Glo (Promega) was added to the cells and the luminescence was measured.
(In general: In ATP-based viability assays light output follows the ATP content of the culture.)

For a further series, the system named is MOLM-13. The series can be described thus: MOLM-13 Cytotoxicity Assay. The conditions noted are these: Homo sapiens. The series is classed as cell-based. The protocol: Example C. MOLM-13 Cytotoxicity Assay. Assay was performed according the procedure described in O. A. Elgamal et al. J. Hematol. Oncol. 2020, 13, 8 (https://doi.org/10.1186/s13045-019-0821-7).

The next series addresses recombinant HPK1 protein (Homo sapiens (Human), UniProt Q92918). The series can be described thus: Primary HPK1 enzymatic inhibition (ADP-Glo luminescence). It is filed as biochemical. The conditions noted are these: recombinant HPK1, MBP substrate, 1 hour at room temperature. The method, then:
Example A. Primary Assay used to determine potency of HPK1 enzymatic activity inhibition. Compound activity was determined using recombinant HPK1 protein and MBP Substrate (both Promega, Cat #V6398) in an in vitro enzymatic reaction. The enzymatic assay used to determine activity was a Luminescence assay using a Microplate Reader ClarioStar Plus. The enzymatic reaction was carried out in assay buffer (40 mM TRIS-HCl pH 7.4-7.6, 20 mM MgCl2, 0.05 mM DTT, 0.1 mg/ml BSA). The compounds were dispensed on a 384 well Diamond Well Plate (Axigen, Cat #P-384-120SQ-C—S) using the Biomek FX liquid handling system at 100× solutions of compounds in DMSO. 2×HPK1-MBP mix (final concentration 0.64 ng/μl of HPK1 and 45 ng/μl of MBP) was prepared in 1× Assay buffer and 5.5 μl of mixture per well was added into 384 w white Reaction plate with NBS (Corning, Cat #4513). 5.5 μl of MBP substrate w/o HPK1 in 1× buffer was used for negative control. Plates were centrifuged for 1 min at 100 g. Next step the Compounds were added to Reaction plate using Biomek station via following steps: 1l of 100× compounds (in DMSO) were mixed thoroughly with 49 ul of 2×10 uM ATP in Assay Buffer, then 5.5 μl of this mixture was added to Reaction plate with 5.5 μl of HPK1-MBP mix. Plates were centrifuged for 1 min at 100 g and incubated for 1 hour at room temperature. Next 3 μL of ADP-Glo reagent (Promega, ADP-Glo™ Kinase Assay, Cat #V9102) per well was added. Plates were incubated for 30 minutes at room temperature. Then 6 μL of Kinase detection reagent (Promega, ADP-Glo™ Kinase Assay, Cat #V9102) per well was added and the Luminescence was measured using Microplate Reader. The % inhibition was then used to calculate the IC50 values.

The next series addresses FLT3 (D835Y) (Homo sapiens (Human), UniProt P36888, D835Y). The series can be described thus: FLT3 kinase radiometric HotSpot assay, FLT3 (D835Y). It is filed as biochemical. The method, then: (§1) Example D. FLT3 inhibitory activity and cytotoxicity. This assay was used to determine potency of FLT3 enzymatic activity inhibition. Corresponding biochemical inhibition of enzymatic activities of FLT3 (wt), FLT3 (D835Y), and FLT3 (ITD) were measured using recombinant protein constructs of kinase domains via activity based FLT3 kinase assay for compound screening and profiling via radiometric HotSpot™ kinase assay (Reaction Biology). Peptide substrate [[…]]. Compounds were dissolved to 10 mM in DMSO. Compounds were tested in 10-dose IC50 mode with a 3-fold serial dilution starting at 0.3 μM. […] Reactions were carried out at 1 μM ATP. The estimated Ki values were calculated by using the formula presented below, which is applicable for ATP competitive inhibitors: Ki=IC50/(1+[S]/Km). […] In Table E shown HEK293 cytotoxicity.

The target in a further series is FLT3 (ITD) (Homo sapiens, UniProt P36888, ITD). In words: FLT3 kinase radiometric HotSpot assay, FLT3 (ITD). The series is classed as biochemical.
Another series is described as follows: HEK293 cytotoxicity. The series is classed as cell-based. The conditions noted are these: human, HEK293 cells. The protocol:
as §1

A further series addresses FLT3 (wt) (Homo sapiens (Human), UniProt P36888). In words: FLT3 kinase radiometric HotSpot assay, FLT3 (wt). The series is classed as biochemical. The protocol:
as §1

Where [1] appears, read: 72 h, MV4-11 cells, 3 days, CellTiter-Glo.
Where [2] appears, read: MOLM-13 cells, read-out: MOLM-13, CC50.

In general, CC50 refers to the concentration giving 50% cytotoxicity. The Ki is the dissociation constant of the complex between target and ligand, obtained from inhibition or displacement.

Sequence of recombinant HPK1 protein (Q92918 whole entry): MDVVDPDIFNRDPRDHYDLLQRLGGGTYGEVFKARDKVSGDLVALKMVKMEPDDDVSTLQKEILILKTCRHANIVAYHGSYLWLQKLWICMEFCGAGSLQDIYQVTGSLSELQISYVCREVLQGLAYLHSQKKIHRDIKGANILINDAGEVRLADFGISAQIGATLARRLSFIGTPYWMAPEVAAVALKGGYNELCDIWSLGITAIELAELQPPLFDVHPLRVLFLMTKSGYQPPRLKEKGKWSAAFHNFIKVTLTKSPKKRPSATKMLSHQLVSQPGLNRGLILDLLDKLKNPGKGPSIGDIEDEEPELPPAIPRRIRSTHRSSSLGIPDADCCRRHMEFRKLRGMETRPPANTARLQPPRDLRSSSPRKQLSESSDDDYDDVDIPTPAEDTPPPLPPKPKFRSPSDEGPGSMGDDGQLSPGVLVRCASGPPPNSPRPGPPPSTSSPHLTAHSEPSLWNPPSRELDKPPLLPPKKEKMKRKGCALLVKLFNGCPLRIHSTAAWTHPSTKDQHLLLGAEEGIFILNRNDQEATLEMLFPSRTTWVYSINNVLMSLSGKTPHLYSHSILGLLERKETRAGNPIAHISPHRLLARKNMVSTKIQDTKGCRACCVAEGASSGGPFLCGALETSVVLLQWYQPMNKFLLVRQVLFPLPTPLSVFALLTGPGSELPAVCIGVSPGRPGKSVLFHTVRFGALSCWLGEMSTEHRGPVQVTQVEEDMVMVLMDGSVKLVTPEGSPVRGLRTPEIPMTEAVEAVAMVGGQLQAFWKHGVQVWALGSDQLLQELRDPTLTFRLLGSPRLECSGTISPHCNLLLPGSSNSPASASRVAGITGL

`COc1ccc2ncc3c(-c4cccc(N5CCC(N(C)C)CC5)c4)nn(-c4ccc(C)c(C)c4)c3c2c1` [Compound 1.1, 1-{3-[1-(3,4-dimethylphenyl)-8-methoxy-1H-pyrazolo[4,3-c]quinolin-3-yl]phenyl}-N,N-dimethylpiperidin-4-amine]: the CC50 was more than 0.5 µM in the series on MV4-11 cell lines (setting [1]) and 1 to 5 µM with MOLM-13 (setting [2]). Besides, at recombinant HPK1 protein, the Ki fell in the range of 0.01 to 0.02 µM.

For the compound `COc1ccc2ncc3c(-c4cccc(N5CCN(C)CC5)c4)nn(-c4ccc(C)c(C)c4)c3c2c1` [Compound 1.3, 1-{3-[1-(3,4-dimethylphenyl)-8-methoxy-1H-pyrazolo[4,3-c]quinolin-3-yl]phenyl}-4-methylpiperazine], the figures for the CC50 in the series with MV4-11 cell lines (setting [1]) and with MOLM-13 (setting [2]) were 0.1 to 0.5 µM and more than 5 µM, respectively. Further, the Ki at recombinant HPK1 protein lay in the range of 0.01 to 0.02 µM.

Turning to `COc1ccc2ncc3c(-c4cccc(N5CCC(N(C)C)CC5)c4)nn(-c4cccc(C)c4C)c3c2c1` [Compound 1.14, 1-{3-[1-(2,3-dimethylphenyl)-8-methoxy-1H-pyrazolo[4,3-c]quinolin-3-yl]phenyl}-N,N-dimethylpiperidin-4-amine], in the series on MV4-11 cell lines (setting [1]), the CC50 was more than 0.5 µM. Besides, at recombinant HPK1 protein, the Ki was less than 0.01 µM.

With `COc1ccc2ncc3c(-c4ccc(N5CCN(C)CC5)cc4)nn(-c4ccc(C)c(C)c4)c3c2c1` [Compound 1.16, 1-{4-[1-(3,4-dimethylphenyl)-8-methoxy-1H-pyrazolo[4,3-c]quinolin-3-yl]phenyl}-4-methylpiperazine], the CC50 was 0.05 to 0.1 µM with MV4-11 cell lines (setting [1]) and less than 0.5 µM with MOLM-13 (setting [2]). On recombinant HPK1 protein, the Ki was 0.01 to 0.02 µM.

With `COc1ccc2ncc3c(-c4ccc(N5CCC(N(C)C)CC5)cc4)nn(-c4ccc(C)c(C)c4)c3c2c1` [Compound 1.17, 1-{4-[1-(3,4-dimethylphenyl)-8-methoxy-1H-pyrazolo[4,3-c]quinolin-3-yl]phenyl}-N,N-dimethylpiperidin-4-amine], in the series on MV4-11 cell lines (setting [1]), the CC50 fell in the range of 0.05 to 0.1 µM. Also, the Ki at recombinant HPK1 protein lay in the range of 0.01 to 0.02 µM.

As to `COc1ccc2ncc3c(-c4ccc(N(C)CCCN(C)C)cc4)nn(-c4ccc(C)c(C)c4)c3c2c1` [Compound 1.18, N-[3-(dimethylamino)propyl]-4-[1-(3,4-dimethylphenyl)-8-methoxy-1H-pyrazolo[4,3-c]quinolin-3-yl]-N-methylaniline], the CC50 was 0.1 to 0.5 µM in the series with MV4-11 cell lines (setting [1]) and more than 5 µM in the series on MOLM-13 (setting [2]). In addition, the Ki on recombinant HPK1 protein lay in the range of 0.02 to 0.05 µM.

Take `Cc1ccc(-n2nc(-c3ccc(N4CCN(C)CC4)cc3)c3cnc4ccccc4c32)cc1C` [Compound 1.21, 1-{4-[1-(3,4-dimethylphenyl)-1H-pyrazolo[4,3-c]quinolin-3-yl]phenyl}-4-methylpiperazine]: the values for the CC50 in the series on MV4-11 cell lines (setting [1]) and with MOLM-13 (setting [2]) were 0.1 to 0.5 µM and 1 to 5 µM, respectively. Also, the Ki on recombinant HPK1 protein is not below 0.05 µM.

For the compound `Cc1ccc(-n2nc(-c3ccc(N4CCNCC4)cc3)c3cnc4ccccc4c32)cc1C` [Compound 1.22, 1-{4-[1-(3,4-dimethylphenyl)-1H-pyrazolo[4,3-c]quinolin-3-yl]phenyl}piperazine], the CC50 with MV4-11 cell lines (setting [1]) lay within 0.1 to 0.5 µM; in the series with MOLM-13 (setting [2]) it was 1 to 5 µM. Besides, at recombinant HPK1 protein, the Ki is not below 0.05 µM.

On to `COc1ccc2ncc3c(-c4ccc(OCCN(C)C)c(OC)c4)nn(-c4ccc(C)c(C)c4)c3c2c1` [Compound 1.24, (2-{4-[1-(3,4-dimethylphenyl)-8-methoxy-1H-pyrazolo[4,3-c]quinolin-3-yl]-2-methoxyphenoxy}ethyl)dimethylamine], for which the cytotoxic concentration (CC50) is less than 0.05 µM in the series on MV4-11 cell lines (MV4-11, 72 h) and less than 0.5 µM in the series on MOLM-13 (MOLM-13, read-out: MOLM-13, CC50). The Ki on recombinant HPK1 protein is 0.01 to 0.02 µM.

On to `COc1ccc2ncc3c(-c4ccc(OCCN5CCOCC5)c(OC)c4)nn(-c4ccc(C)c(C)c4)c3c2c1` [Compound 1.25, 4-(2-{4-[1-(3,4-dimethylphenyl)-8-methoxy-1H-pyrazolo[4,3-c]quinolin-3-yl]-2-methoxyphenoxy}ethyl)morpholine], for which the results for the CC50 in the series with MV4-11 cell lines (setting [1]) and in the series on MOLM-13 (setting [2]) were 0.1 to 0.5 µM and 1 to 5 µM, respectively. In addition, the Ki at recombinant HPK1 protein lay in the range of 0.02 to 0.05 µM.

On to `COc1ccc2ncc3c(-c4ccc(OCCCN5CCOCC5)c(OC)c4)nn(-c4ccc(C)c(C)c4)c3c2c1` [Compound 1.26, 4-(3-{4-[1-(3,4-dimethylphenyl)-8-methoxy-1H-pyrazolo[4,3-c]quinolin-3-yl]-2-methoxyphenoxy}propyl)morpholine], for which the CC50 in the series with MV4-11 cell lines (setting [1]) fell in the range of 0.05 to 0.1 µM; in the series on MOLM-13 (setting [2]), 0.5 to 1 µM. Further, the Ki on recombinant HPK1 protein is 0.02 to 0.05 µM.

As to `COc1ccc(-c2nn(-c3ccc4c(c3)CNCC4)c3c2cnc2ccccc23)cc1OC` [Compound 1.31, 7-[3-(3,4-dimethoxyphenyl)-1H-pyrazolo[4,3-c]quinolin-1-yl]-1,2,3,4-tetrahydroisoquinoline], the Ki on FLT3 (D835Y) was less than 0.5 nM; at FLT3 (ITD) it was 0.5 to 2 nM; on FLT3 (wt) it was less than 0.5 nM. This compound showed a CC50 in the series “HEK293 cytotoxicity” of less than 10 µM.

`COc1ccc(-c2nn(-c3ccc4c(c3)CCNC4)c3c2cnc2ccccc23)cc1OC` [Compound 1.32, 6-[3-(3,4-dimethoxyphenyl)-1H-pyrazolo[4,3-c]quinolin-1-yl]-1,2,3,4-tetrahydroisoquinoline]: the Ki was 0.5 to 2 nM at FLT3 (D835Y), more than 5 nM at FLT3 (ITD) and 0.5 to 2 nM on FLT3 (wt). This compound also gave a cytotoxic concentration (CC50) in “HEK293 cytotoxicity” of 10 to 50 µM.

`COc1ccc(-c2nn(-c3ccc4c(c3)CNC4)c3c2cnc2ccccc23)cc1OC` [Compound 1.33, 5-[3-(3,4-dimethoxyphenyl)-1H-pyrazolo[4,3-c]quinolin-1-yl]-2,3-dihydro-1H-isoindole]: the Ki is less than 0.5 nM on FLT3 (D835Y), 2 to 5 nM on FLT3 (ITD) and 0.5 to 2 nM at FLT3 (wt). In the series “HEK293 cytotoxicity”, this compound displayed a CC50 not below 50 µM.

In the case of `COc1ccc2ncc3c(-c4ccc(OC)c(OC)c4)nn(-c4ccc5c(c4)CNCC5)c3c2c1` [Compound 1.34, 7-[3-(3,4-dimethoxyphenyl)-8-methoxy-1H-pyrazolo[4,3-c]quinolin-1-yl]-1,2,3,4-tetrahydroisoquinoline], the inhibitory constant (Ki) was less than 0.5 nM at FLT3 (D835Y); less than 0.5 nM on FLT3 (ITD) (read-out: Ki, nM FLT3 (ITD)); less than 0.5 nM at FLT3 (wt).

With `COc1ccc2ncc3c(-c4ccc(OC)c(OC)c4)nn(-c4ccc5c(c4)CCNC5)c3c2c1` [Compound 1.35, 6-[3-(3,4-dimethoxyphenyl)-8-methoxy-1H-pyrazolo[4,3-c]quinolin-1-yl]-1,2,3,4-tetrahydroisoquinoline], the Ki was less than 0.5 nM on FLT3 (D835Y); 0.5 to 2 nM at FLT3 (ITD) (read-out: Ki, nM FLT3 (ITD)); less than 0.01 µM on recombinant HPK1 protein; less than 0.5 nM at FLT3 (wt). Also, in “HEK293 cytotoxicity”, the CC50 is less than 10 µM.

For the compound `COc1ccc2ncc3c(-c4ccc(OC)c(OC)c4)nn(-c4ccc5c(c4)CNC5)c3c2c1` [Compound 1.36, 5-[3-(3,4-dimethoxyphenyl)-8-methoxy-1H-pyrazolo[4,3-c]quinolin-1-yl]-2,3-dihydro-1H-isoindole], the Ki on FLT3 (D835Y) was less than 0.5 nM; on FLT3 (ITD) (read-out: Ki, nM FLT3 (ITD)), 0.5 to 2 nM; on recombinant HPK1 protein it was less than 0.01 µM; on FLT3 (wt), less than 0.5 nM. Further, the CC50 in “HEK293 cytotoxicity” was less than 10 µM.
